From paper PMC12604929, “Tumor-specific cytotoxicity of pyrazole-based chalcone derivatives in human oral squamous cell carcinoma cell lines” (Turkish Journal of Biology, 2025)
Numbered stars: 1 amine (or outer) side, 2 acyl side, 3 side chain; on linkers, the order of the positions; unused ones are H or OH. Bridge positions count the residues as written; N and C are the ends. Square brackets hold non-standard residues; d marks the D form. Peptide text beside a SMILES is read from it. I, II: the chains in the order shown. Actinocin(9to1) = Cc1c2oc3c(C)ccc(C(=O)[*:1])c3nc-2c(C(=O)[*:2])c(N)c1=O; NMeV = CN[C@H](C(=O)O)C(C)C; Sar = CNCC(=O)O

Legend:
[1] = MTT cytotoxicity, three normal oral cell types together (mean); type: cell-based, human; details: female, human; mean of HGF, HPLF, HPC; read-out: CC50 normal oral cells mean (D)
From the text: (§1) Estimation of CC50 values. […] The mean pCC50 values for normal cells and tumor cell lines were defined as N and T, respectively.

[2] = test system: HSC-3 cells (OSCC, tongue); assay: MTT cytotoxicity assay, HSC-3; type: cell-based, human; details: for CC50: Homo sapiens, HSC-3, OSCC, 48 h, MTT, average of three determinations
Experimental: (§2) The viable cell number was determined in triplicate by the MTT method, following the approach adopted in previous studies ([Nagai et al., 2018]; [Shi et al., 2018] ). Briefly, the cells were incubated for 2 h with 0.2 mg/mL of MTT, and the formed formazan was dissolved with 0.1 mL of DMSO to determine the relative viable cell number at 560 nm.
(§3) Cells were inoculated at 2×10^3 cells/0.1 ml in a 96-microwell plate. […] Cells were incubated further for 48 h and the relative viable cell number was then determined by the MTT method and expressed as the absorbance of the cell lysate at 560 nm, using a microplate reader (Infinite F50R; TECAN, Männedorf, Switzerland) [49, 50]. Control cells were treated with the same amounts of DMSO and the cell damage induced by DMSO was subtracted from that induced by test agents. The concentration of compound that reduced the viable cell number by 50% (CC50) was determined from the dose–response curve and the mean value of CC50 for each cell type was calculated from triplicate assays.
(§4) Human oral squamous cell carcinoma (OSCC) cell lines [Ca9-22 (derived from gingival tissue); and HSC-2, HSC-3, HSC-4 (derived from tongue)] were purchased from Riken Cell Bank (Tsukuba, Japan). All of these cells were cultured at 37°C in DMEM supplemented with 10% heat-inactivated fetal bovine serum, 100 units/ml, penicillin G and 100 µg/ml streptomycin sulfate under a humidified 5% CO2 atmosphere. Cell morphology was checked periodically under a light microscope (EVOS FL; Thermo Fisher Scientific, Waltham, MA, USA).

[3] = MTT cytotoxicity assay, HPLF; type: cell-based, human; details: female, human, normal oral cells, average of three determinations
Experimental: as §2, §3
(§5) All of these cells were cultured at 37°C in DMEM supplemented with 10% heat-inactivated fetal bovine serum, 100 units/ml, penicillin G and 100 µg/ml streptomycin sulfate under a humidified 5% CO2 atmosphere.

[4] = MTT cytotoxicity assay, HGF; type: cell-based, human; details: human, human gingival fibroblasts (HGF), normal oral cells, average of three determinations
Experimental: as §2, §3, §4

[5] = test system: HSC-2 cells (OSCC, tongue); assay: MTT cytotoxicity assay, HSC-2; details: Homo sapiens, HSC-2, 48 h, read-out: CC50 HSC-2
Experimental: as §2, §3, §4

[6] = test system: Ca9-22 cells (OSCC, gingival tissue); assay: MTT cytotoxicity assay, Ca9-22; type: cell-based, human; details: for TS (C/A) tumor-selectivity index: CC50 HGF / CC50 Ca9-22 (both gingival); for PSE (C/A^2)x100 potency-selectivity expression: HGF vs Ca9-22 (both gingival); for CC50: Homo sapiens, Ca9-22, OSCC, 48 h, MTT, average of three determinations
Experimental: as §2, §3, §4

[7] = MTT cytotoxicity assay, HPC; type: cell-based, human; details: female, human, human pulp cells (HPC), normal oral cells, average of three determinations
Experimental: as §2, §3, §5

[8] = test system: HSC-4 cells (OSCC, tongue); assay: MTT cytotoxicity assay, HSC-4; type: cell-based, human; details: Homo sapiens, HSC-4, 48 h, average of three determinations
Experimental: as §2, §3, §4

[9] = test system: human OSCC cell lines (Ca9-22, HSC-2, HSC-3, HSC-4); assay: MTT cytotoxicity, four OSCC cell lines together (mean, TS, PSE, type of growth inhibition); type: cell-based; details: for CC50: Homo sapiens, mean of Ca9-22, HSC-2, HSC-3, HSC-4, read-out: CC50 OSCC mean (B); for type of growth inhibition on the OSCC cell lines: from dose-response curves, Figure 4, cytostatic = without complete cytotoxicity, cytotoxic = complete cell death; for TS (D/B) tumor-selectivity index: mean CC50 normal cells / mean CC50 OSCC cell lines
Experimental: TS was calculated using the following equation: TS=mean CC50 against three normal oral cell types/mean CC50 against four OSCC cell lines (HGF, HPLF, HPC vs. Ca9-22, HSC-2, HSC-3, HSC-4). Since both Ca9-22 and HGF cells were derived from the gingival tissue, the relative sensitivity of these cells was also compared (as: CC50 against HGF/ CC50 against Ca9-22).
PSE was calculated by the following equation: PSE=mean CC50 against three normal oral cell types/(CC50 against four OSCC cell lines)2 × 100 (HGF, HPLF, HPC vs. Ca9-22, HSC-2, HSC-3, HSC-4); and as CC50 against HGF/(CC50 against Ca9-22)2 × 100 using the pair of cell types from the same tissue (gingiva) (see Table 1).
as §1

HSC-2 cells = assay: Cell-cycle analysis (propidium iodide, cell sorting); type: cell-based, human; details: HSC-2, 24 h, 1 μM; control 1.9 %
Experimental: Cell-cycle analysis was performed following the process described in the literature ([Kantoh et al., 2010]; [Nagai et al., 2018]; [Shi et al., 2018]), details of which are presented in a supplementary file. Briefly, cells (approximately 10^6 in number) were fixed with paraformaldehyde in PBS(−) and treated with RNase A. After staining with propidium iodide in the presence of 0.01% Nonidet-40 to prevent cell aggregation, the cells were filtered through Falcon cell strainers and then subjected to cell sorting, analyzed with Cell Sorter Software (version 2.1.2) (SONY Imaging Products and Solution Inc., Kanagawa, Japan).
HSC-2 cells were incubated for 24 h with actinomycin D (Act.D) (positive control of apoptosis induction) or MS4, 7, or 8, or without treatment (control), and subjected to cell cycle analysis. […] D (1 μM) (p < 0.05) from 1.9 % to 12.5%. […] The cell cycle analysis was performed only with HSC-2 cells; therefore, experiments with other OSCC cell lines should be conducted to support the generalization of our findings.
Treated and untreated cells (approximately 10^6 cells) were harvested, fixed with 1% paraformaldehyde in PBS without calcium and magnesium ions [PBS(−)]. Fixed cells were then washed twice with PBS(−) and treated for 30 min with 400 μl of 0.2 mg/ml RNase A (preheated for 10 min at 100 °C to inactivate DNase) to degrade RNA. Cells were then washed twice with PBS(−) and stained for 15 min with 0.01% propidium iodide (PI) in the presence of 0.01% NP-40 in PBS(−) to prevent cell aggregation. After filtering through Falcon® cell strainers ([…]) (Corning, NY, USA) to remove aggregated cells, PI-stained cells were subjected to cell sorting (SH800 Series; SONY Imaging Products and Solutions Inc., Kanagawa, Japan). Cell-cycle analysis was performed with Cell Sorter Software version 2.1.2. (SONY Imaging Products and Solution Inc.).

NS(=O)(=O)c1ccc(-n2cc(/C=C/C(=O)c3cccs3)c(-c3ccccc3)n2)cc1 [MS10, (E)-4-(4-(3-Oxo-3-(thiophen-2-yl)prop-1-en-1-yl)-3-phenyl-1H-pyrazol-1-yl)benzenesulfonamide]
CC50 at 48 h [1]: 48 µM
CC50 [2]: 4.63 µM
CC50 at 48 h [3]: 121 µM
CC50 at 48 h [4]: 16.6 µM
CC50 [5]: 0.38 µM
TS (C/A) tumor-selectivity index [6]: 26.4
PSE (C/A^2)x100 potency-selectivity expression [6]: 4191
CC50 [6]: 0.63 µM
CC50 at 48 h [7]: 6.7 µM
CC50 [8]: 1.78 µM
CC50 [9]: 1.86 µM
type of growth inhibition on the OSCC cell lines [9]: mixed effects
TS (D/B) tumor-selectivity index [9]: 25.9

O=c1[nH]cc(F)c(=O)[nH]1 [Compound 5-FU, 5-fluorouracil, reference compound]
TS (C/A) tumor-selectivity index [6]: > 30.3
type of growth inhibition on the OSCC cell lines [9]: cytostatic effects
TS (D/B) tumor-selectivity index [9]: > 28.6

C/C(=N\Nc1ccc(S(N)(=O)=O)cc1)c1ccccc1 [MS1, (E)-4-(2-(1-phenylethylidene)hydrazinyl)benzenesulfonamide]
CC50 at 48 h [1]: 116 µM
CC50 [2]: 53.7 µM
CC50 at 48 h [3]: 246 µM
CC50 at 48 h [4]: 50.7 µM
CC50 [5]: 14.3 µM
TS (C/A) tumor-selectivity index [6]: 2.5
CC50 [6]: 20 µM
CC50 at 48 h [7]: 51 µM
CC50 [8]: 15.7 µM
CC50 [9]: 25.9 µM
type of growth inhibition on the OSCC cell lines [9]: cytostatic effects
TS (D/B) tumor-selectivity index [9]: 4.5

COc1ccc(C(=O)/C=C/c2cn(-c3ccc(S(N)(=O)=O)cc3)nc2-c2ccccc2)cc1OC [MS9, (E)-4-(4-(3-(3,4-Dimethoxyphenyl)-3-oxoprop-1-en-1-yl)-3-phenyl-1H-pyrazol-1-yl)benzenesulfonamide]
CC50 at 48 h [1]: > 400 µM
CC50 [2]: 35 µM
CC50 at 48 h [3]: > 400 µM
CC50 at 48 h [4]: > 400 µM
CC50 [5]: 50.3 µM
TS (C/A) tumor-selectivity index [6]: >40.1
CC50 [6]: 10 µM
CC50 at 48 h [7]: > 400 µM
CC50 [8]: 83 µM
CC50 [9]: 44.6 µM
type of growth inhibition on the OSCC cell lines [9]: mixed effects
TS (D/B) tumor-selectivity index [9]: >9.0

Cc1ccc(C(=O)/C=C/c2cn(-c3ccc(S(N)(=O)=O)cc3)nc2-c2ccccc2)cc1 [MS5, (E)-4-(4-(3-Oxo-3-(p-tolyl)prop-1-en-1-yl)-3-phenyl-1H-pyrazol-1-yl)benzenesulfonamide]
CC50 at 48 h [1]: > 192 µM
CC50 [2]: 34.7 µM
CC50 at 48 h [3]: > 400 µM
CC50 at 48 h [4]: 145 µM
CC50 [5]: 0.9 µM
TS (C/A) tumor-selectivity index [6]: 88.8
PSE (C/A^2)x100 potency-selectivity expression [6]: 5426
CC50 [6]: 1.6 µM
CC50 at 48 h [7]: 30.3 µM
CC50 [8]: 3.1 µM
CC50 [9]: 10.1 µM
type of growth inhibition on the OSCC cell lines [9]: cytostatic effects
TS (D/B) tumor-selectivity index [9]: >19.1

NS(=O)(=O)c1ccc(-n2cc(C=O)c(-c3ccccc3)n2)cc1 [MS3, 4-(4-formyl-3-phenyl-1H-pyrazol-1-yl) benzenesulfonamide]
CC50 at 48 h [1]: 230 µM
CC50 [2]: 51.7 µM
CC50 at 48 h [3]: 217 µM
CC50 at 48 h [4]: 253 µM
CC50 [5]: 64 µM
TS (C/A) tumor-selectivity index [6]: 7.8
CC50 [6]: 32.3 µM
CC50 at 48 h [7]: 221 µM
CC50 [8]: 46.3 µM
CC50 [9]: 48.6 µM
type of growth inhibition on the OSCC cell lines [9]: cytotoxic effects
TS (D/B) tumor-selectivity index [9]: 4.7

COc1cccc2c1C(=O)c1c(O)c3c(c(O)c1C2=O)C[C@@](O)(C(=O)CO)C[C@@H]3O[C@H]1C[C@H](N)[C@H](O)[C@H](C)O1 [DXR, doxorubicin, reference compound]
CC50 at 48 h [1]: > 9.7 µM
CC50 [2]: 0.29 µM
CC50 at 48 h [3]: > 10 µM
CC50 at 48 h [4]: > 10 µM
CC50 [5]: 0.12 µM
TS (C/A) tumor-selectivity index [6]: >45.5
CC50 [6]: 0.22 µM
CC50 at 48 h [7]: 9.2 µM
CC50 [8]: 0.09 µM
CC50 [9]: 0.18 µM
type of growth inhibition on the OSCC cell lines [9]: cytotoxic effects
TS (D/B) tumor-selectivity index [9]: >54.9

CN(C)C=NS(=O)(=O)c1ccc(-n2cc(C=O)c(-c3ccccc3)n2)cc1 [MS2]
CC50 at 48 h [1]: 241 µM
CC50 [2]: 74.3 µM
CC50 at 48 h [3]: 262 µM
CC50 at 48 h [4]: 245 µM
CC50 [5]: 41.3 µM
TS (C/A) tumor-selectivity index [6]: 7.1
CC50 [6]: 34.3 µM
CC50 at 48 h [7]: 214 µM
CC50 [8]: 63 µM
CC50 [9]: 53.3 µM
type of growth inhibition on the OSCC cell lines [9]: cytotoxic effects
TS (D/B) tumor-selectivity index [9]: 4.5

COc1ccc(C(=O)/C=C/c2cn(-c3ccc(S(N)(=O)=O)cc3)nc2-c2ccccc2)cc1 [MS6, (E)-4-(4-(3-(4-Methoxyphenyl)-3-oxoprop-1-en-1-yl)-3-phenyl-1H-pyrazol-1-yl)benzenesulfonamide]
CC50 at 48 h [1]: 120 µM
CC50 [2]: 3.6 µM
increase of cytotoxicity against HSC-3 compared to MS4 ([2]; relative to unsubstituted phenyl derivative MS4): 1.5–2 times
CC50 at 48 h [3]: 99.7 µM
CC50 at 48 h [4]: 209 µM
CC50 [5]: 4.1 µM
TS (C/A) tumor-selectivity index [6]: 66.5
PSE (C/A^2)x100 potency-selectivity expression [6]: 2115
CC50 [6]: 3.1 µM
CC50 at 48 h [7]: 51.9 µM
CC50 [8]: 3.3 µM
CC50 [9]: 3.5 µM
type of growth inhibition on the OSCC cell lines [9]: cytotoxic effects
TS (D/B) tumor-selectivity index [9]: 33.9

Cc1c2oc3c(C)ccc(C(=O)N[C@@H]4C(=O)N[C@H](C(C)C)C(=O)N5CCC[C@H]5C(=O)N(C)CC(=O)N(C)[C@@H](C(C)C)C(=O)O[C@@H]4C)c3nc-2c(C(=O)N[C@@H]2C(=O)N[C@H](C(C)C)C(=O)N3CCC[C@H]3C(=O)N(C)CC(=O)N(C)[C@@H](C(C)C)C(=O)O[C@@H]2C)c(N)c1=O [Act.D, actinomycin D, reference compound] (I: T[dV]P[Sar][NMeV] / II: T[dV]P[Sar][NMeV]; ester I:1-I:C, II:1-II:C; linker I:N-II:N via Actinocin(9to1))
subG1 cell population (HSC-2 cells): 12.5%
